From PubChem BioAssay AID330 (DTP/NCI, 2004) come the findings set out here.

Where “and” joins values, the source holds several entries; their conditions need not be identical. Equal values may be shown once. Toxic doses and inconclusive results are not listed. Peptide text beside a SMILES is read from it. * marks the point of attachment. Cbz = O=C(OCc1ccccc1)*

This experiment has as its system P388 leukemia ip, CD2F1 mice, survival T/C. Put plainly: NCI In Vivo Anticancer Drug Screen. Data for tumor model P388 Leukemia (intraperitoneal) in CD2F1 (CDF1) mice. To be noted: endpoint: median survival time, higher = longer survival. In short, it runs like this:
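Mice carrying the transplanted tumor received test compound or vehicle. Survival was recorded in each group, and the value is the treated-group measurement divided by that of the vehicle-treated control group.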

Setting [1] is: dose: 15.0 mg/kg/injection, schedule: Q01DX005 (ip), vehicle: saline with Tween-80.
The mark [2] stands for this setting: dose: 30.0 mg/kg/injection, schedule: Q01DX005 (ip), vehicle: saline with Tween-80.
[3] abbreviates: dose: 100.0 mg/kg/injection, schedule: Q01DX001 (ip), vehicle: Klucel (hydroxypropylcellulose) (HPC).
Where [4] appears, read: dose: 200.0 mg/kg/injection, schedule: Q01DX001 (ip), vehicle: Klucel (hydroxypropylcellulose) (HPC).
Setting [5] is: dose: 400.0 mg/kg/injection, schedule: Q01DX001 (ip), vehicle: Klucel (hydroxypropylcellulose) (HPC).
[6] abbreviates: dose: 25.0 mg/kg/injection, schedule: Q01DX009 (ip), vehicle: saline with Tween-80.
Setting [7] is: dose: 50.0 mg/kg/injection, schedule: Q01DX009 (ip), vehicle: saline with Tween-80.
Where [8] appears, read: dose: 50.0 mg/kg/injection, schedule: Q01DX009 (ip), vehicle: Klucel (hydroxypropylcellulose) (HPC).
Setting [9] is: dose: 100.0 mg/kg/injection, schedule: Q01DX009 (ip), vehicle: Klucel (hydroxypropylcellulose) (HPC).
The mark [10] stands for this setting: dose: 200.0 mg/kg/injection, schedule: Q01DX009 (ip), vehicle: Klucel (hydroxypropylcellulose) (HPC).

Turning to `CC(=O)OC1C(O)C(C)OC(OC2C(OC(=O)C3CCC4C(C3)OC3(CC(OC(=O)/C=C/c5ccccc5)C(C)CO3)C43CO3)OC(CO)C(O)C2OC(C)=O)C1O` (centres undefined), the T/C by setting is: (dose: 1.5 mg/kg/injection, schedule: Q01DX009 (ip), vehicle: saline + alcohol) 106 % of control; (dose: 3.0 mg/kg/injection, schedule: Q01DX009 (ip), vehicle: saline + alcohol) 106 % of control and 116 % of control.
For the compound `COc1cc(OC)cc(C2OC3=C(Nc4ccccc4N3)C2=O)c1` (centres undefined), the T/C by setting is: (dose: 60.0 mg/kg/injection, schedule: Q01DX005 (ip), vehicle: Klucel (hydroxypropylcellulose) (HPC)) 93 % of control; (dose: 120.0 mg/kg/injection, schedule: Q01DX005 (ip), vehicle: Klucel (hydroxypropylcellulose) (HPC)) 89 % of control.
On to `COC(=O)C1CCCN1C(=O)C(CCCCNC(=O)OCc1ccccc1)NC(=O)OCc1ccccc1` (centres undefined) (Cbz-Lys(Cbz)-Pro-OMe; configuration not given here), for which the T/C runs as follows: (dose: 50.0 mg/kg/injection, schedule: Q01DX005 (ip), vehicle: saline) 106 % of control; (dose: 100.0 mg/kg/injection, schedule: Q01DX005 (ip), vehicle: saline) 103 % of control; (dose: 200.0 mg/kg/injection, schedule: Q01DX005 (ip), vehicle: saline) 105 % of control.
On to `[Cl][Sn]([CH2][Sn]([Cl])([c]1ccccc1)[c]1ccccc1)([c]1ccccc1)[c]1ccccc1`, for which the T/C was 103 % of control (dose: 0.39 mg/kg/injection, schedule: Q01DX005 (ip), vehicle: Klucel (hydroxypropylcellulose) (HPC)); 104 % of control (dose: 0.79 mg/kg/injection, schedule: Q01DX005 (ip), vehicle: Klucel (hydroxypropylcellulose) (HPC)); 106 % of control (dose: 1.56 mg/kg/injection, schedule: Q01DX005 (ip), vehicle: Klucel (hydroxypropylcellulose) (HPC)); 97 % of control (dose: 3.12 mg/kg/injection, schedule: Q01DX005 (ip), vehicle: Klucel (hydroxypropylcellulose) (HPC)); 116 % of control (dose: 12.5 mg/kg/injection, schedule: Q01DX005 (ip), vehicle: Klucel (hydroxypropylcellulose) (HPC)).
Regarding `C=C1C(=O)OC2C1CCC(C)=C1C(=O)C=C(C)C12` (centres undefined), the T/C is 109 % of control (dose: 50.0 mg/kg/injection, schedule: Q04DX003 (ip), vehicle: saline with Tween-80); 116 % of control (dose: 100.0 mg/kg/injection, schedule: Q04DX003 (ip), vehicle: saline with Tween-80); 119 % of control (dose: 200.0 mg/kg/injection, schedule: Q04DX003 (ip), vehicle: saline with Tween-80).
As to `CC(=O)c1ccc(Nc2cc(C)nc(N)n2)cc1`, the T/C is 103 % of control under setting [1]; 104 % of control under setting [2]; 100 % of control and 105 % of control (dose: 60.0 mg/kg/injection, schedule: Q01DX005 (ip), vehicle: saline with Tween-80); 112 % of control (dose: 100.0 mg/kg/injection, schedule: Q04DX002 (ip), vehicle: saline with Tween-80); 96 % of control (dose: 200.0 mg/kg/injection, schedule: Q04DX002 (ip), vehicle: saline with Tween-80); 99 % of control (dose: 400.0 mg/kg/injection, schedule: Q04DX002 (ip), vehicle: saline with Tween-80).
For `Clc1ccc(SSN2CCCCC2)cc1`, the T/C by setting is: (dose: 50.0 mg/kg/injection, schedule: Q01DX009 (ip), vehicle: saline) 92 % of control; (dose: 100.0 mg/kg/injection, schedule: Q01DX009 (ip), vehicle: saline) 97 % of control; (dose: 200.0 mg/kg/injection, schedule: Q01DX009 (ip), vehicle: saline) 96 % of control.
With `C=C1COC(O)(C2OCOC(C3CC(=O)NC(=O)C3)C2O)C1C` (centres undefined), the T/C by setting is: (dose: 0.03 mg/kg/injection, schedule: Q01DX009 (ip), vehicle: water) 107 % of control; (dose: 2.0 micrograms/kg/injection, schedule: Q01DX009 (ip), vehicle: water) 119 % of control; (dose: 4.0 micrograms/kg/injection, schedule: Q01DX009 (ip), vehicle: water) 119 % of control; (dose: 7.5 micrograms/kg/injection, schedule: Q01DX009 (ip), vehicle: water) 117 % of control; (dose: 32.0 micrograms/kg/injection, schedule: Q01DX009 (ip), vehicle: water) 181 % of control.
Take `C=C1C(=O)OC2/C=C(\COC(C)=O)CCC(OC(C)=O)C3=CC(OC3=O)C12` (centres undefined): the T/C is 95 % of control (dose: 1.87 mg/kg/injection, schedule: Q01DX009 (ip), vehicle: Klucel (hydroxypropylcellulose) (HPC)); 102 % of control (dose: 3.75 mg/kg/injection, schedule: Q01DX009 (ip), vehicle: Klucel (hydroxypropylcellulose) (HPC)); 96 % of control (dose: 7.5 mg/kg/injection, schedule: Q01DX009 (ip), vehicle: Klucel (hydroxypropylcellulose) (HPC)); 117 % of control (dose: 15.0 mg/kg/injection, schedule: Q01DX009 (ip), vehicle: Klucel (hydroxypropylcellulose) (HPC)).
With `Cc1ccc(C(C(=O)O)(c2ccc(C)cc2)C(O)C(=O)O)cc1` (centres undefined), the T/C was 107 % of control under setting [3], 107 % of control under setting [4] and 105 % of control under setting [5].
As to `CN(C)c1ccc2c(c1)C(=O)N(OS(=O)(=O)c1ccccc1)C2=O`, the T/C (dose: 50.0 mg/kg/injection, schedule: Q01DX005 (ip), vehicle: saline with Tween-80) was 100 % of control; the T/C (dose: 100.0 mg/kg/injection, schedule: Q01DX005 (ip), vehicle: saline with Tween-80) is 103 % of control; the T/C (dose: 200.0 mg/kg/injection, schedule: Q01DX005 (ip), vehicle: saline with Tween-80) was 96 % of control.
In the case of `CCCCC1C2C(S(=O)(=O)c3ccccc3)=NOC2C=CN1C(C)=O` (centres undefined), the T/C runs as follows: under setting [1], 105 % of control and 109 % of control; under setting [2], 102 % of control and 93 % of control and 98 % of control.
Turning to `COc1ccc2nc(N=Nc3ccc(N4CCOCC4)cc3C)sc2c1`, the T/C under setting [3] was 86 % of control, the T/C under setting [4] was 86 % of control and the T/C under setting [5] is 88 % of control.
For the compound `C/C=C/C[P+](CC)(c1ccccc1)c1ccccc1`, the T/C by setting is: (dose: 0.78 mg/kg/injection, schedule: Q01DX009 (ip), vehicle: saline) 103 % of control; (dose: 1.56 mg/kg/injection, schedule: Q01DX009 (ip), vehicle: saline) 97 % of control; (dose: 3.13 mg/kg/injection, schedule: Q01DX009 (ip), vehicle: saline) 112 % of control.
`CC=C1CN(C)C2Cc3c([nH]c4ccccc34)C(=O)CC1C2C(=O)OC` (centres undefined): the T/C runs as follows: (dose: 7.5 mg/kg/injection, schedule: Q01DX009 (ip), vehicle: saline + alcohol) 107 % of control; (dose: 15.0 mg/kg/injection, schedule: Q01DX009 (ip), vehicle: saline + alcohol) 116 % of control; (dose: 30.0 mg/kg/injection, schedule: Q01DX009 (ip), vehicle: saline + alcohol) 106 % of control.
`CCCCC/C(C=C(C#N)C#N)=C/c1ccccc1`: the T/C is, setting by setting: under setting [6], 103 % of control and 86 % of control; under setting [7], 100 % of control and 123 % of control and 91 % of control; (dose: 100.0 mg/kg/injection, schedule: Q01DX009 (ip), vehicle: saline with Tween-80) 119 % of control and 92 % of control; (dose: 200.0 mg/kg/injection, schedule: Q01DX009 (ip), vehicle: saline with Tween-80) 111 % of control.
Turning to `Cc1nc2c(=O)nc3n(c2nc1C)CCS3`, the T/C is, setting by setting: (dose: 100.0 mg/kg/injection, schedule: Q01DX001 (ip), vehicle: saline) 104 % of control; (dose: 200.0 mg/kg/injection, schedule: Q01DX001 (ip), vehicle: saline) 102 % of control; (dose: 400.0 mg/kg/injection, schedule: Q01DX001 (ip), vehicle: saline) 104 % of control.
For `OB(O)c1ccc(B(O)O)cc1`, the T/C by setting is: under setting [8], 104 % of control; under setting [9], 103 % of control; under setting [10], 95 % of control; (dose: 400.0 mg/kg/injection, schedule: Q01DX009 (ip), vehicle: Klucel (hydroxypropylcellulose) (HPC)) 104 % of control.
Turning to `ClCC[N+]12CC[N+](CCCl)(CC1)C2.[Cl][Pt]([Cl])([Cl])[Cl]`, the T/C reads like this: (dose: 6.25 mg/kg/injection, schedule: Q01DX009 (ip), vehicle: distilled water + Tween-80) 100 % of control; (dose: 25.0 mg/kg/injection, schedule: Q01DX009 (ip), vehicle: distilled water + Tween-80) 169 % of control.
`CCCCCCCCCCN1CCS(=O)(=O)CC1`: the T/C runs as follows: under setting [8], 101 % of control; under setting [9], 100 % of control; under setting [10], 98 % of control.
In the case of `FC(F)(F)c1cccc(N=c2ccn3ccccc3c2)c1`, the T/C by setting is: (dose: 12.5 mg/kg/injection, schedule: Q01DX009 (ip), vehicle: saline with Tween-80) 103 % of control; under setting [6], 96 % of control; under setting [7], 91 % of control and 94 % of control.
